For eleven compounds, IC50 results are on record in US20260241039A1, “FLUORESCENT PROBES FOR MAGL” (Hoffmann-La Roche Inc., priority 2022, published 2026).

This test addresses T1, hMAGL (Homo sapiens, UniProt Q99685).
T1 sequence (Q99685 1-303): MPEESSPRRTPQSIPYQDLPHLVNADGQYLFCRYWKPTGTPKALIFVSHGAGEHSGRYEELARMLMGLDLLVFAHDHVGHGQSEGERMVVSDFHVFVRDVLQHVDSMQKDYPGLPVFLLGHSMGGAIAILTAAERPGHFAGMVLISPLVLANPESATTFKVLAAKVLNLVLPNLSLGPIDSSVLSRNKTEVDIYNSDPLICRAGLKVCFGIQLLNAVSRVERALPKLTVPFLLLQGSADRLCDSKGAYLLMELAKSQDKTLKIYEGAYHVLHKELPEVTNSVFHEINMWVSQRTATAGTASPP
Briefly: 2-AG assay: MAGL inhibitory activity, hydrolysis of 2-arachidonoylglycerol to arachidonic acid followed by mass spectrometry. The class given is biochemical. Conditions: 15 min pre-incubation at RT, 30 min reaction at RT, 8 μM 2-arachidonoylglycerol. On the procedure:
Compounds were profiled for MAGL inhibitory activity by determining the enzymatic activity by following the hydrolysis of the natural substrate 2-arachidonoylglycerol (2-AG) resulting in arachidonic acid, which can be followed by mass spectrometry. This assay is hereinafter abbreviated “2-AG assay”.
The 2-AG assay was carried out in 384 well assay plates (PP, Greiner Cat #784201) in a total volume of 20 μL. Compound dilutions were made in 100% DMSO (VWR Chemicals 23500.297) in a polypropylene plate in 3-fold dilution steps to give a final concentration range in the assay from 12.5 μM to […]. 0.25 μL compound dilutions (100% DMSO) were added to 9 μL MAGL in assay buffer (50 mM TRIS (GIBCO, 15567-027), 1 mM EDTA (Fluka, 03690-100 mL), 0.01% (v/v) Tween. After shaking, the plate was incubated for 15 min at RT. To start the reaction, 10 μL 2-arachidonoylglycerol in assay buffer was added. The final concentrations in the assay was […] and 8 μM 2-arachidonoylglyerol. After shaking and 30 min incubation at RT, the reaction was quenched by the addition of 40 μL of ACN containing 4 μM of d8-arachidonic acid. The amount of arachidonic acid was traced by an online SPE system (Agilent Rapidfire) coupled to a triple quadrupole mass spectrometer (Agilent 6460). A C18 SPE cartridge (G9205A) was used in an ACN/water liquid setup. The mass spectrometer was operated in negative electrospray mode following the mass transitions 303.1→259.1 for arachidonic acid and 311.1→267.0 for d8-arachidonic acid. The activity of the compounds was calculated based on the ratio of intensities [arachidonic acid/d8-arachidonic acid].
`NC(=O)[C@H]1CCN(C(=O)N2CC3(CC(CC4=C5C=CC=[N+]5[B-](F)(F)n5cccc54)C3)C2)C1` [Example 27, (S)-1-(6-((5,5-difluoro-5H-4λ^4,5λ^4-dipyrrolo[1,2-c:2,1′-f][1,3,2]diazaborinin-10-yl)methyl)-2-azaspiro[3.3]heptane-2-carbonyl)pyrrolidine-3-carboxamide] showed a 50% inhibitory concentration (IC50) of 1.98 nM. That is a single-digit nanomolar value.

In the case of `O=C1CO[C@H]2CCN(C(=O)N3CC4(CC(Oc5cc(=O)oc6ccccc56)C4)C3)C[C@H]2N1` [Example 4, (4aR,8aS)-6-(6-((2-oxo-2H-chromen-4-yl)oxy)-2-azaspiro[3.3]heptane-2-carbonyl)hexahydro-2H-pyrido[4,3-b][1,4]oxazin-3(4H)-one], the concentration for half-maximal inhibition (IC50) was 298 nM.

In turn, “2-(2-((5,5-difluoro-5H-4λ^4,5λ^4-dipyrrolo[1,2-c:2′,1′-f][1,3,2]diazaborinin-10-yl)oxy)-7-azaspiro[3.5]nonane-7-carbonyl)-7-oxa-2,5-diazaspiro[3.4]octan-6-one [Example 13]” returned an IC50 of 3.99 nM.

On to “(4aR,8aS)-6-(6-((5,5-difluoro-3-(1H-pyrrol-2-yl)-5H-4λ^4,5λ^4-dipyrrolo[1,2-c:2′,1′-f][1,3,2]diazaborinin-10-yl)methyl)-2-azaspiro[3.3]heptane-2-carbonyl)hexahydro-2H-pyrido[4,3-b][1,4]oxazin-3(4H)-one [Example 30]”, for which it took 0.05 nM to reach half-maximal inhibition (IC50). Against the preceding compound, the IC50 is about 80-fold lower. Consider “(R)-4-(3-(6-((5,5-difluoro-5H-4λ^4,5λ^4-dipyrrolo[1,2-c:2′,1′-f][1,3,2]diazaborinin-10-yl)methyl)-2-azaspiro[3.3]heptan-2-yl)-3-oxopropyl)oxazolidin-2-one [Example 28]”, for which the IC50 came to 1.01 nM. `O=C1CO[C@H]2CCN(C(=O)N3CC(COC4=C5C=CC=[N+]5[B-](F)(F)n5cccc54)C3)C[C@H]2N1` [Example 7, (4aR,8aS)-6-(3-(((5,5-difluoro-5H-4λ^4,5λ^4-dipyrrolo[1,2-c:2,1′-f][1,3,2]diazaborinin-10-yl)oxy)methyl)azetidine-1-carbonyl)hexahydro-2H-pyrido[4,3-b][1,4]oxazin-3(4H)-one] came in with an IC50 of 2590 nM. Against the preceding compound, the IC50 is about 2600-fold higher. `O=C1COC2CCN(C(=O)N3C[C@@H]4[C@@H](COC5=C6C=CC=[N+]6[B-](F)(F)n6cccc65)[C@@H]4C3)CC2N1` (stereo partly drawn) [Example 14, (4aR,8aS)-6-((1R,5S,6R)-6-(((5,5-difluoro-5H-4λ^4,5λ^4-dipyrrolo[1,2-c:2′,1′-f][1,3,2]diazaborinin-10-yl)oxy)methyl)-3-azabicyclo[3.1.0]hexane-3-carbonyl)hexahydro-2H-pyrido[4,3-b][1,4]oxazin-3(4H)-one] came in with a half-maximal inhibitory concentration (IC50) of 500 nM. “6-(6-((5,5-difluoro-5H-4λ^4,5λ^4-dipyrrolo[1,2-c:2′,1′-f][1,3,2]diazaborinin-10-yl)methyl)-2-azaspiro[3.3]heptane-2-carbonyl)-2H-benzo[b][1,4]oxazin-3(4H)-one [Example 24]”: the IC50 came out at 7.5 nM.

The compound “(4aR,8aS)-6-(6-((5,5-difluoro-5H-4λ^4, 5λ^4-dipyrrolo[1,2-c:2′,1′-f][1,3,2]diazaborinin-10-yl)oxy)-2-azaspiro[3.3]heptane-2-carbonyl)hexahydro-2H-pyrido[4,3-b][1,4]oxazin-3(4H)-one [Example 8]” had a half-maximal inhibitory concentration (IC50) of 79.3 nM. Turning to “(4aR,8aS)-6-(2-((5,5-difluoro-5H-4λ^4, 5λ^4-dipyrrolo[1,2-c:2,1′-f][1,3,2]diazaborinin-10-yl)oxy)-7-azaspiro[3.5]nonane-7-carbonyl)hexahydro-2H-pyrido[4,3-b][1,4]oxazin-3(4H)-one [Example 12]”, the midpoint of inhibition, the IC50, lay at 45 nM. For “(4aR,8aS)-6-(4-((5,5-difluoro-5H-4λ^4, 5λ^4-dipyrrolo[1,2-c:2,1′-f][1,3,2]diazaborinin-O-yl)methylene)piperidine-1-carbonyl)hexahydro-2H-pyrido[4,3-b][1,4]oxazin-3(4H)-one [Example 17]”, half-maximal inhibition (IC50) required 1680 nM.
